From patent US20260151457A1, “Peptides and Fragments for Treating Diabetes and Associated Metabolic Diseases” (Betavive Ltd., priority 2024, published 2026)

Key:
β-MIN6 cells = experiment: Cell count (proliferation) of β-MIN6 cells; assay type: cell-based, mouse; conditions: 5 nM, 20 nM, 80 nM, 1 week treatment
Source text: β-MIN6 cells serve as an in vitro model of mouse pancreatic islets. β-MIN6 cells were used as an in vitro model to measure the effects of treatment with IGF-2.

mice = experiment: Blood glucose concentration kinetics of IGF-2 vs. insulin in a glucose tolerance test; assay type: in vivo
Description: IGF-2 therefore provides an effect that mimics insulin within the body, and that effect is referred to herein as an “insulinomimetic” effect. […] More specifically, when 1 unit of insulin per kg was administered, the recovery in glucose levels began after two hours. But when 800 μg/kg of IGF-2 was administered, the recovery in glucose levels began after six hours. […] In this example, administering IGF-2 can provide better results than administering insulin with respect to blood glucose levels, even when only a single dose was used. Without being bound by this theory, it is possible that the IGF-2 combines with a number of binding proteins in the blood and its active free form is then released slowly from the complex.

STZ-treated mouse islets [1] = experiment: Insulin secretion from STZ-treated mouse islets; assay type: cell-based; conditions: islets treated with 2.5 mM STZ; IGF-2 50 nM and 500 nM, GLP-1 100 nM and 1000 nM; 48 hours
Description: Mouse islet cells were treated with 2.5 mM STZ and subsequently treated with either IGF-2 (FA) at 50 nM and 500 nM, or with GLP-1 at 100 nM and 1000 nM.

STZ-treated mouse islets [2] = experiment: MTT viability of STZ-treated mouse islets; assay type: cell-based; conditions: increasing concentrations
Source text: Yellow dye MTT is converted to a purple dye by mitochondrial reductase in viable cells. Therefore, the amount of purple dye present determined by measuring optical density of cells at 570 nm serves as a measurement of cell viability.

STZ-treated mice [3] = experiment: Serum insulin and c-peptide levels in STZ-treated mice four weeks after IGF-2 treatment; assay type: in vivo; conditions: four weeks post treatment
Description: Fasting blood glucose levels (mg/dL) were determined using the Accu-Chek Performa glucometer (Roche Diagnostics, Mannheim, Germany). After approximately two weeks of stable hyperglycemia, C57BL/6 STZ mice received exogenous injections of recombinant human IGF-2 (0.3-12 mg/kg/day injection) intraperitoneally for 5-10 consecutive days. During post-treatment follow-up period and upon termination, mice were tested for: fasting glucose, body weight, glucose tolerance test (IPGTT), serum C-peptide level, serum insulin level, and full blood and histological analysis (CBC, Chemistry, Insulin IHC and H&E).
C-peptide is a biomarker used to assess pancreatic beta cell function and is normally produced in equimolar amounts to endogenous insulin. Leighton et al., A Practical Review of C-Peptide Testing in Diabetes, Diabetes Ther. 2017 June; 8 (3): 475-487.

db/db mice [4] = experiment: Histopathology and immunohistochemistry of pancreas islet cells in db/db mice treated with IGF-2; assay type: in vivo
Description: FIG. 27 provides results of histopathology and immunohistochemical studies showing the number of pancreas islet cells that test positive for insulin (left panel) and glucagon (right panel) in db/db mice. In this experiment, one group of db/db mice was injected with 12000 μg/kg of IGF-2 on each of 70 consecutive days, a second group of db/db mice was injected with saline, and a third group of db/db mice was a naïve control group. The mice were sacrificed for pathology 70 days after the end of the initial 70 day treatment.
In this experiment, one group of db/db mice (labeled X4) was injected with 12000 μg/kg of IGF-2 on each of 70 consecutive days, a second group of db/db mice (labeled X1) was injected with 3000 μg/kg of IGF-2 on each of 70 consecutive days, and a third group of db/db mice (labeled control) was injected with saline. The mice were sacrificed for pathology 70 days after the end of the initial 70 day treatment. […] The control panels show a positive stain for insulin, which increases in intensity in the 3000 μg/kg/day mice, and increases again in intensity in the 12,000 μg/kg/day mice.

db/db mice [5] = experiment: 14 hour fasting blood glucose in db/db mice treated with IGF-2; assay type: in vivo
Description: db/db mice are bred to have a leptin deficiency, increasing susceptibility of the mice to obesity, insulin resistance, and type 2 diabetes (T2D).
In this experiment, one group of db/db mice was injected with 3000 μg/kg/day of IGF-2 for 68 days, a second group of db/db mice was injected with 12000 μg/kg/day of IGF-2 for 66 days, and a third group of db/db mice was injected with saline once a day for 68 days.
In one experiment (left panel), one group of db/db mice was injected with a daily dose of 12000 μg/kg of IGF-2 divided in two injections per day for 70 days, while another group of db/db mice was injected with saline. […] In another experiment (right panel), one group of db/db mice was injected with a daily dose of 12000 μg/kg of IGF-2 divided in two injections per day for 35 days, while another group of db/db mice was injected with saline.
In one exemplary experiment, db/db mice were treated with a 12,000 μg/kg daily dose for 70 days with 70 days of follow up (during which IGF-2 was not administered). All the treated mice maintained normoglycemia for at least 50 days following treatment. In another exemplary experiment, db/db mice were treated with a 12,000 μg/kg daily dose for 35 days with 35 days of follow up (during which IGF-2 was not administered). All the treated mice maintained normoglycemia for 35 days following treatment.

STZ-treated mice [6] = experiment: Short term effects of a single IGF-2 injection on glucose and IGF-2 levels in STZ-treated mice; assay type: in vivo
Description: More specifically, the top panel illustrates the drop in glucose blood levels in three STZ-treated mice after receiving a 800 μg/kg/day dose of IGF-2 over a 240 minute time course. […] IGF-2 is part of a complex system comprising IGF-1 and IGF-2 along with binding proteins, proteases and other interacting molecules. A single 800 μg/kg dose of IGF-2 injected intraperitoneally lowers hyperglycemic blood glucose levels of 300-500 mg/dl to a normal level (100-200 mg/dL) for periods of over four hours. Normoglycemia is maintained while total serum IGF-2 is reduced to very low levels. […] Without being bound by this theory, it is believed that a slow release of IGF-2 from a serum complex can maintain normal blood glucose levels.

[7] = single 800 μg/kg dose injected intraperitoneally

insulin-like growth factor 2 [IGF-2]
Cell count (cell proliferation) (β-MIN6 cells): increases cell proliferation in a dose-dependent manner
Glucose level after administration (mice; glucose tolerance test in mice): decreased
Time after which the recovery in glucose levels began (mice; insulin 1 unit per kg, IGF-2 800 μg/kg, single dose): six
Insulin secretion (STZ-treated mouse islets [1]): increased in a dose dependent manner
Mouse islet viability (MTT, optical density at 570 nm) (STZ-treated mouse islets [2]): increased in a dose dependent manner
Increase in c-peptide levels (STZ-treated mice [3]; four STZ-treated mice): 12 fold
Increase in serum insulin compared to STZ treated control mice (STZ-treated mice [3]; permanently cured mice): 50%
Increase in the number of insulin-positive cells (db/db mice [4]; 12000 μg/kg on 70 consecutive days, sacrificed 70 days after end of treatment): more than 50%
Insulin positive cells (immunohistochemical staining) (db/db mice [4]; 3000 and 12000 μg/kg on 70 consecutive days): increase in insulin positive cells in a dose-dependent manner
14 hour fasting blood glucose levels (db/db mice [5]; 3000 μg/kg/day for 68 days, first group b178, second group b179): reduced blood glucose levels (14 hour fasting blood glucose levels) to a normal range even after the end of the 68 day treatment period
Time all treated mice maintained normoglycemia following treatment (db/db mice [5]; 12,000 μg/kg daily for 35 days, 35 days of follow up): 35 days
Time all treated mice maintained normoglycemia following treatment (db/db mice [5]; 12,000 μg/kg daily for 70 days, 70 days of follow up): at least 50 days
14 hour fasting blood glucose levels (db/db mice [5]; 12000 μg/kg daily in two injections per day for 35 days): reduced blood glucose levels (14 hour fasting blood glucose levels) to a normal range even after the end of the 35 day treatment period
14 hour fasting blood glucose levels (db/db mice [5]; 12000 μg/kg daily in two injections per day for 70 days): reduced blood glucose levels (14 hour fasting blood glucose levels) to a normal range even after the end of the 70 day treatment period
14 hour fasting blood glucose levels (db/db mice [5]; 12000 μg/kg/day for 66-68 days, first group b178, second group b179): reduced blood glucose levels (14 hour fasting blood glucose levels) to a normal range even after the end of the 68 day treatment period
Free IGF-2 levels relative to total IGF-2 (STZ-treated mice [6]; 800 μg/kg dose, 240 minute time course): a small fraction of the total IGF-2 concentration
Blood glucose level reached from hyperglycemic 300-500 mg/dl (STZ-treated mice [6]; [7]): 100 to 200 mg/dL
Period of normal blood glucose level after a single dose (STZ-treated mice [6]; [7]): over four
